According to patent US10342867B2 (priority 2014, dated 2019):

Assays:
[1] = rabbit, in vivo
[2] = rabbit, in vivo; remark: listed apart in the source
[3] = rabbit, in vivo; remark: listed apart in the source
[4] = rabbit, in vivo; remark: listed apart in the source
[5] = rabbit, in vivo; remark: listed apart in the source

For “Monosulphate heptadecylmaltose [M10-MONO]”, the “Number of animals demonstrating a detectable adverse local reaction four weeks after the first immunization” value (“Number … after the first immunization” for short) [1] was 0/6, the “Number of animals demonstrating a detectable adverse local reaction one week after the second immunization” value (from here on “Number … after the second immunization”) [1] was 0/6 and the “Body temperature one day after the first immunization, Mean” value [2] was 38.9 °C. For the same substance, the “Body temperature one day after the second immunization, Mean” value [2] was 39.2 °C, the “Increase in body temperature one day post immunization 1, mean” value [3] was 0.5 °C and the “Increase in body temperature two days post immunization 1, mean” value [3] was 0.1 °C. For the same substance, the “increases in body temperature in comparison to the corresponding POLY counterpart” value [3] was “lower increases”, the “Reactogenicity 1 week post immunization 2, GMS” value [4] was 1.34 and the “Reactogenicity 1 week post immunization 2, antilog” value [4] was 22. For the same substance, the “Reactogenicity 4 weeks post immunization 1, GMS” value [4] was 1.26, the “Reactogenicity 4 weeks post immunization 1, antilog” value [4] was 18 and the “Body weight gain one week post immunization 1, mean” value [5] was 35 g. The “Body weight gain two weeks post immunization 1, mean” value [5] was 49 g.

For “Monosulphate heptadodecylmaltose [M12-MONO]”, the “Number … after the first immunization” value [1] was 0/6, the “Number … after the second immunization” value [1] was 0/6 and the “Body temperature one day after the first immunization, Mean” value [2] was 39.0 °C. For the same substance, the “Body temperature one day after the second immunization, Mean” value [2] was 39.2 °C.

For “Monosulphate tetradodecyl galactose [G12-MONO]”, the “Number … after the first immunization” value [1] was 1/6 (discoloration, loss, the “Number … after the second immunization” value [1] was 1/6 (granuloma) and the “Body temperature one day after the first immunization, Mean” value [2] was 39.1 °C. The “Body temperature one day after the second immunization, Mean” value [2] was 39.3 °C.

In the case of “maltose decanoic acid polysulphate ester [M10-POLY]”, the “Increase in body temperature one day post immunization 1, mean” value [3] is reported as 0.7 °C, the “Increase in body temperature two days post immunization 1, mean” value [3] is reported as 0.5 °C and the “Reactogenicity 1 week post immunization 2, GMS” value [4] is reported as 3.37. The “Reactogenicity 4 weeks post immunization 1, GMS” value [4] was 1.73, the “Reactogenicity 4 weeks post immunization 1, antilog” value [4] was 53 and the “Body weight gain one week post immunization 1, mean” value [5] was 38 g. For the same substance, the “Body weight gain two weeks post immunization 1, mean” value [5] was 53 g.
